Data on one compound can be found in publication PMC6897379 (Clinical cancer research : an official journal of the …, 2019).

For data set [1] the following is noted: children, cited from earlier work.
Another data set concerns ALL-8 xenograft. Description: ALL-8 xenograft, comparison of dosing schedules. It is filed as in vivo, NOD/SCID mice.
Data set [2] relates to atypical teratoid rhabdoid (ATRT) cell lines. The note with it: ATRT cell lines that overexpress AAK with SMARCB1 mutations; cited from earlier work.
For data set [3] the following is noted: adults; twice daily for 7 days; DLT neutropenia and stomatitis; cited from earlier work.
The mark [4] stands for this setting: Schedule A, twice daily × 7 days.
Setting [5] is: Schedule B, twice daily × 5 days × 3 weeks.

In the case of `COc1cc(Nc2ncc3c(n2)-c2ccc(Cl)cc2C(c2c(F)cccc2OC)=NC3)ccc1C(=O)O` [alisertib, Alisertib], in data set [1] (80 mg/m^2 dose level), the “Trough 24 hours after the first dose” value was 1.1 µM. In data set [1] (recommended dose 80 mg/m^2), the maximum concentration (Cmax) was 7.5 ± 0.1 µM. In the data set with ALL-8 xenograft (Schedule A and Schedule B), the Objective response entry is “neither of the treatment schedules induced an objective response”. The “Median EFS Treated” value turned out to be 19.8 days in the data set with ALL-8 xenograft (Schedule A, 10.4 mg/kg oral gavage twice daily × 7 days) and 31.9 days with ALL-8 xenograft (Schedule B, 10.4 mg/kg oral gavage twice daily × 5 days × 3 weeks). For the same compound, the “EFS T-C” value in the data set with ALL-8 xenograft (setting [4]) is 10.9 days; in the data set with ALL-8 xenograft (setting [5]), 23.0 days. For the same compound, the “EFS T/C” value worked out at 2.2 with ALL-8 xenograft (setting [4]) and 3.6 in the data set with ALL-8 xenograft (setting [5]). Moreover, in the data set on ALL-8 xenograft (both alisertib schedules), the “Human cells in the bone marrow, lowest levels achieved” value is “approximately 20%”. For the same compound, the “Human cells in the spleen, lowest levels achieved” value with ALL-8 xenograft (both alisertib schedules) is given as 5–10%. Moreover, in the data set on ALL-8 xenograft (p=0.004), the “Additional delay of leukemia progression, Schedule B compared with Schedule A” value was determined as 12.1 days. In data set [2], the “Effect on cell lines” value was “induce cell death and augment radiation sensitivity”. The Recommended dose in data set [3] was 50 mg.
